Assay results published in patent publication US20260008818A1, “CYCLIC PEPTIDE OR SALT THEREOF, AND USES THEREOF” (FUJIFILM Corporation, priority 2023, published 2026).
Bridge positions count the residues as written; N and C are the ends. Square brackets hold non-standard residues; d marks the D form. Ends that are not written are not given here. hCys = N[C@@H](CCS)C(=O)O; Orn = NCCC[C@H](N)C(=O)O

What was measured:
[1] = test system: hMSC-Human Mesenchymal Stem Cells; test: Effect of maintaining MSC undifferentiated potency (gene expression); type: cell-based
Procedure: The effect of maintaining mesenchymal stem cell (MSC) undifferentiated potency of the cyclic peptide complex was evaluated.
MSC was prepared in the same manner as in Example 7.
The evaluation of the effect of maintaining the MSC undifferentiated potency was performed by the following method. First, a culture medium (hereinafter, referred to as a custom culture medium) in which bFGF was removed from PRIME-XV MSC Expansion XSFM (FUJIFILM Irvine Scientific, Inc., 91149) was prepared. Next, Prime-XV Human Fibronectin (FUJIFILM Irvine Scientific, Inc., 31002) was dissolved in PBS (Fujifilm Wako Pure Chemical Corporation, 164-23551), 2 μg/cm^2 of the solution was added to a 12-well plate used for proliferation, and the 12-well plate was allowed to stand at room temperature for 3 hours to coat the 12-well plate with fibronectin. Thereafter, the MSCs subjected to the subculture were peeled using Tryple Express (Thermo, 12604-013), washed once with a custom culture medium, suspended in a custom culture medium in which a cyclic peptide complex or bFGF (R&D Systems, 3718-GMP) was diluted to final concentrations of 3 nmol/L and 1 nmol/L, and seeded on a 12-well plate coated with fibronectin. In this case, conditions in which the cyclic peptide complex and bFGF were not added as a negative control were prepared. After culturing at 37° C. (5% CO2) for 2 nights, the culture medium was replaced by removing the supernatant of the culture medium and adding the same amount of a culture medium prepared to have the same composition as the removed culture medium. After further culturing at 37° C. (5% CO2) for 2 nights, RNA was extracted using an RNeasy Plus Mini Kit (Qiagen, 74136) according to the manufacturer's protocol. […] The expression level of each gene was normalized by setting the expression level of the well to which 1 nmol/L bFGF was added to 1.

[2] = test system: Recombinant Human FGFR 1 alpha (IIIc) Fc Chimera Protein; test: Binding affinity of chemically synthesized cyclic peptide to immobilized FGFR by SPR; settings: 10 nmol/L cyclic peptide, 25° C., binding amount per one molecule of FGFR, chemically synthesized product
Procedure: The binding affinity of the cyclic peptide to FGFR was evaluated using a surface plasmon resonance (SPR) method.
A CM5 sensor chip (Cytiva, 29149603) was set in Biacore-T200 (manufactured by Cytiva) which is a surface plasmon resonance device, and an HBS-EP buffer (Cytiva, BR100826) was added as a running buffer at a flow rate of 10 μL/min to equilibrate the flow channel. Next, 70 μL of a mixed aqueous solution of 0.2 mol/L 1-(3-dimethylaminopropyl)-3-ethylcarbodiimide (EDC) and 0.05 mol/L N-hydroxysuccinimide (NHS) was added to activate the sensor chip. Then, Recombinant Human FGFR 1 alpha (IIIc) Fc Chimera Protein CF (R&D systems, 658-FR-050) prepared at 50 nmol/L in an Acetate 4.5 buffer (Cytiva, BR100350) was added thereto to perform immobilization at about 5000 RU. Thereafter, the blocking treatment was performed with an ethanolamine solution. In addition, in another flow channel of the same sensor chip, blocking treatment was performed immediately after activation without immobilizing FGFR.
A cyclic peptide diluted to 10 nmol/L using HBS-EP was added to each flow channel of the FGFR-immobilized sensor chip produced above at 25° C. for 10 minutes, then HBS-EP was allowed to flow as a running buffer for 30 minutes, and the binding of the cyclic peptide to FGFR was measured. Thereafter, a regeneration treatment of removing the bound cyclic peptide was performed by repeating the flow of a regeneration liquid in which sodium chloride powder was dissolved in Glysine 1.5 (Cytiva, BR100354) to a final concentration of 0.15 mol/L for 1 minute in each flow channel twice. The binding amount of the cyclic peptide was evaluated from the difference between the measured value of Biacore-T200 in the flow channel in which FGFR was immobilized and the measured value of Biacore-T200 in the flow channel in which FGFR was not immobilated, in a case where a 10 nmol/L cyclic peptide was allowed to flow.
The binding amount of the cyclic peptide evaluated above was normalized to the binding amount of the cyclic peptide molecules per one molecule of FGFR using the molecular weights of the cyclic peptide and FGFR, and the binding affinity to FGFR was evaluated according to the following evaluation criteria. The evaluation result preferably satisfies the evaluation criteria A, B, or C.
• A: The binding amount is 0.7 molecules of the cyclic peptide/one molecule of FGFR or more. • B: The binding amount is 0.5 molecules of the cyclic peptide/one molecule of FGFR or more and less than 0.7 molecules of cyclic peptide/one molecule of FGFR. • C: The binding amount is 0.1 molecules of cyclic peptide/one molecule of FGFR or more and less than 0.5 molecules of cyclic peptide/one molecule of FGFR. • D: The binding amount is less than 0.1 molecules of the cyclic peptide/one molecule of FGFR.

[3] = Molecular stability of cyclic peptide after reducing agent (DTT) treatment, LC; type: physicochemical; settings: residual rate after 12.6 mmol/L DTT aqueous solution, room temperature, 1 hour
Procedure: The molecular stability of the cyclic peptide was evaluated by analyzing an aqueous solution of the cyclic peptide treated with a reducing agent by liquid chromatography (LC).
The reducing agent treatment was performed under the following conditions based on the concentration of glutathione contained in the cells. 25 μL of a 0.2 mg/mL cyclic peptide aqueous solution was prepared, 58.8 μL of a 12.6 mmol/L DTT aqueous solution was added to the aqueous solution, and the mixture was incubated at room temperature for 1 hour to obtain an aqueous solution of the cyclic peptide treated with a reducing agent. The DTT aqueous solution was used by diluting a 1 mol/L (+-)-dithiothreitol (DTT) solution (FUJIFILM Wako Pure Chemical Corporation, 044-33871) with water. The total area of all the peaks in LC/MS of the cyclic peptide before the reducing agent treatment was set to 100%, and the proportion of the total area of all the peaks in LC/MS of the aqueous solution of the cyclic peptide treated with the reducing agent was determined to calculate the residual rate of the cyclic peptide, and the molecular stability was evaluated according to the following evaluation criteria. The evaluation result preferably satisfies the evaluation criteria A, B, or C.
• A: The residual rate of cyclic peptide is 90% or more. • B: The residual rate of the cyclic peptide is 70% or more and less than 90% • C: The residual rate of the cyclic peptide is 50% or more and less than 70% • D: The residual rate of the cyclic peptide is less than 50%
The LC used for the evaluation of molecular stability was set to the following conditions. • LC device: Prominence series (pump, column oven, autosampler, detector) (manufactured by Shimadzu Corporation) • Detector: photodiode array detector (SPD-M20A), measurement wavelength of 280 nm • Column: TSKgel ODS-100V, inner diameter of 4.6 mm×length of 150 mm, particle diameter of 5 μm (manufactured by Tosoh Corporation) • Eluent A: solution containing 0.1% trifluoroacetic acid as solute, and solvent is 100% water • Eluent B: solution containing 0.1% trifluoroacetic acid as solute, and solvent is 100% acetonitrile • Flow rate: 1.0 mL/min • Injection amount: 25 μL • Gradient: 20% to 50%: Eluent B (0 to 15 minutes), 100%: Eluent B (15 minutes) • Column temperature: 40° C.

[4] = 1 nmol/L bFGF versus condition without bFGF (negative control)

Row | Substance | expression level of Nanog [1, 4] | expression level of Oct4 [1, 4] | expression level of Sox2 ([1]; cyclic peptide complex 3 nmol/L or bFGF 1 nmol/L, normalized to 1 nmol/L bFGF = 1, bFGF compared with negative control) | Evaluation result of binding affinity to FGFR [2] | Evaluation result of reductive stability [3]
1 | bFGF: basic fibroblast growth factor (R&D Systems, 3718-GMP) | did not change substantially | did not change substantially | changed |  | 
2 | 380 (HXSYERLQFHGHEAPFRVXVKKK; not fully specified; Description of Artificial Sequence: Cyclic peptide) [compound 380] |  |  |  | A (The binding amount is 0.7 molecules of the cyclic peptide/one molecule of FGFR or more.) | A (The residual rate of cyclic peptide is 90% or more.)
3 | 377 (HXSYERLQFHGHEAPFRVXVKKK; not fully specified; Description of Artificial Sequence: Cyclic peptide) [compound 377] |  |  |  | A (The binding amount is 0.7 molecules of the cyclic peptide/one molecule of FGFR or more.) | A (The residual rate of cyclic peptide is 90% or more.)
4 | 381 (HXSYERLQFHGHEAPFRVXVKKK; not fully specified; Description of Artificial Sequence: Cyclic peptide) [compound 381] |  |  |  | A (The binding amount is 0.7 molecules of the cyclic peptide/one molecule of FGFR or more.) | A (The residual rate of cyclic peptide is 90% or more.)
5 | 376 (HXSYERLQFHGHEAPFRVXVKKK; not fully specified; Description of Artificial Sequence: Cyclic peptide) [compound 376] |  |  |  | A (The binding amount is 0.7 molecules of the cyclic peptide/one molecule of FGFR or more.) | A (The residual rate of cyclic peptide is 90% or more.)
6 | 390 ([Orn]SYERLIFHGHEAPFWV[hCys]VKKK; bridge 1-18; not fully specified (residue 1, bridges); printed as (Orn(acetyl))-SYERLIFHGHEAPFWV-(Hcy)-VKKK) [compound 390] |  |  |  | C (The binding amount is 0.1 molecules of cyclic peptide/one molecule of FGFR or more and less than 0.5 molecules of cyclic peptide/one molecule of FGFR.) | A (The residual rate of cyclic peptide is 90% or more.)
7 | 375 (HXSYERLQFHGHEAPFRVXVKKK; not fully specified; Description of Artificial Sequence: Cyclic peptide) [compound 375] |  |  |  | A (The binding amount is 0.7 molecules of the cyclic peptide/one molecule of FGFR or more.) | A (The residual rate of cyclic peptide is 90% or more.)
8 | 379 (HXSYERLQFHGHEAPFRVXVKKK; not fully specified; Description of Artificial Sequence: Cyclic peptide) [compound 379] |  |  |  | A (The binding amount is 0.7 molecules of the cyclic peptide/one molecule of FGFR or more.) | A (The residual rate of cyclic peptide is 90% or more.)
9 | 384 (H[Orn]SYERLIFHGHEAPFWV[hCys]VKKK; bridge 2-19; not fully specified (residue 2, bridges); printed as H-(Orn(acetyl))-SYERLIFHGHEAPFWV-(Hcy)-VKKK) [compound 384] |  |  |  | A (The binding amount is 0.7 molecules of the cyclic peptide/one molecule of FGFR or more.) | B (The residual rate of the cyclic peptide is 70% or more and less than 90%)
10 | 385 ([Orn]SYERLIFHGHEAPFWV[hCys]KKK; bridge 1-18; not fully specified (residue 1, bridges); printed as (Orn(acetyl))-SYERLIFHGHEAPFWV-(Hcy)-KKK) [compound 385] |  |  |  | C (The binding amount is 0.1 molecules of cyclic peptide/one molecule of FGFR or more and less than 0.5 molecules of cyclic peptide/one molecule of FGFR.) | A (The residual rate of cyclic peptide is 90% or more.)
11 | 378 (HKSYERLQFHGHEAPFRVXVKKK; not fully specified; Description of Artificial Sequence: Cyclic peptide) [compound 378] |  |  |  | A (The binding amount is 0.7 molecules of the cyclic peptide/one molecule of FGFR or more.) | A (The residual rate of cyclic peptide is 90% or more.)
12 | 386 ({CH2CO}-HASYERLIFHGHEAPFWVCVKKK; thioether N-19 (inferred)) [compound 386] |  |  |  | B (The binding amount is 0.5 molecules of the cyclic peptide/one molecule of FGFR or more and less than 0.7 molecules of cyclic peptide/one molecule of FGFR.) | A (The residual rate of cyclic peptide is 90% or more.)
